In PMC6472409, “Dishevelled-3 conformation dynamics analyzed by FRET-based biosensors reveals a key role of casein kinase 1” (Nature Communications, 2019):
Residue numbers refer to the chain shown, from its start. Where a SMILES comes first, the peptide text is derived from it. [ ]: non-standard residue; d: D form. pS = N[C@@H](COP(=O)(O)O)C(=O)O

Legend:
Format in all cases: binding
[1] = molecular target: T1, PDZ (S286E/S329E) of human DVL2 (Homo sapiens, UniProt O14641, S286E/S329E); test: NMR titration with DVL C-terminal peptide, PDZ phosphorylation-mimicking variant
T1 construct: The PDZ domain of human DVL2 wild type (aa 265–361) and phosphorylation-mimicking variant S286E + S329E; His6-tag (N, cleaved yes); lipoyl domain (N, cleaved yes); made in house; host or cells: E. coli BL21 (DE3)
T1 sequence (O14641 265-361 S286E/S329E): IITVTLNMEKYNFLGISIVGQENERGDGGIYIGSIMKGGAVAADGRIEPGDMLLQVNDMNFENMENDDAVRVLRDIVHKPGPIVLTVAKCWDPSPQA
Procedure: (§1) The PDZ domain of human DVL2 wild type (aa 265–361) and phosphorylation-mimicking variant S286E + S329E were cloned into pET vector containing an N-terminal His6-tag and a lipoyl domain separated by a Tobacco Etch Virus (TEV) protease digestion site from the N-terminus of the inserts. Both proteins were expressed at high yields in E. coli BL21 (DE3) strain (New England Biolabs, #C2527I). For the NMR studies, ^13C- and ^15N-labeled proteins were prepared by growing cells in minimal medium supplemented with ^15NH4Cl (1 g/l) and ^13C6 glucose (2 g/l) as the sole nitrogen and carbon sources, respectively. Cells were grown at 37 °C to an OD600 of approximately 0.8 and protein expression was induced with 0.5 mM IPTG. Cells were lysed by sonication and centrifuged at 15,000g. Three purification steps were used for both proteins: Ni-NTA chromatography followed by overnight TEV cleavage to remove the N-terminal His6-tag and the lipoyl domain, ion exchange chromatography, and size exclusion chromatography. Finally, the untagged PDZ domain wild type or phosphorylation-mimicking variant was concentrated and exchanged to buffer for NMR or binding experiments containing 20 mM HEPES (pH 6.8) and 50 mM KCl. Human CK1ε (aa 1–294) was also cloned into a pET vector and purified using three purification steps as described for the PDZ domain.
(§2) A 4D HC(CC-TOCSY(CO))NH and a 4D ^13C, ^15N edited HMQC-NOESY-HSQC experiments were recorded at CEITEC Josef Dadok National NMR Centre on a 700 MHz Bruker Avance III spectrometers equipped with ^1H/^13C/^15N TCI cryogenic probe head with z-axis gradients. 4D spectra were processed with SSA package[59] and analyzed with SPARKY. Chemical shift assignments were obtained automatically using 4D-CHAINS[60] and checked manually. NMR titrations were performed in series of ^1H, ^15N HSQC spectra using 100 μM of ^15N-labeled protein (wild type or phosphorylation-mimicking variant) and increasing amounts of C-terminal DVL peptide (pS700) consisted of aa 698–716 from DVL3 (stock concentration of 800 μM). Steady-state^15N-^1H Nuclear Overhauser Effect values were measured under a steady-state condition with a 30 s interscan relaxation delay. Reference spectra and the spectra measured under steady-state conditions were measured in an interleaved manner.

[2] = molecular target: T2, PDZ domain of human DVL2 wild type (aa 265–361) (Homo sapiens, UniProt O14641); test: NMR titration with DVL C-terminal peptide, PDZ wild type
T2 construct: The PDZ domain of human DVL2 wild type (aa 265–361); His6-tag (N, cleaved yes); lipoyl domain (N, cleaved yes); made in house; host or cells: E. coli BL21 (DE3)
T2 sequence (O14641 265-361): T1 sequence (O14641 265-361 S286E/S329E) with E22S, E65S
Procedure: as §1, §2

PDZ wild type from DVL2 = molecular target: T3, PDZ wild type from DVL2 (Homo sapiens, UniProt O14641); test: Surface plasmon resonance, PDZ wild type; conditions: for Response (R.U.): SPR, equilibrium
T3 construct: The PDZ domain of human DVL2 wild type (aa 265–361); His6-tag (N, cleaved yes); lipoyl domain (N, cleaved yes); made in house; host or cells: E. coli BL21 (DE3)
T3 sequence (O14641 265-361): T1 sequence (O14641 265-361 S286E/S329E) with E22S, E65S
Procedure: as §1
(§3) SPR experiments were performed on a Biacore T200 instrument (GE Healthare). The wild type and phosphorylation-mimicking variant of PDZ from DVL2 were immobilized on carboxy-methylated dextran matrix (CM5 chip S Series) using amino coupling. Non-reacted groups were blocked by 1 M ethanolamine. […] The C-terminal DVL peptide (aa 698–716 from DVL3; pS700) was injected at increasing concentrations and long enough to reach steady state. SPR responses were measured and corrected for the response of the blank. Data points were collected from each binding sensogram before the end of the injection (equilibrium) and the dissociation constants were estimated by fitting the response at equilibrium versus the C-terminal peptide concentration using the following equation: Req = C*Rmax/(KD + C), where Req is the binding level in Response Units at different C-terminal peptide concentrations (C), Rmax the response at saturation (fitted), and KD the apparent dissociation constant (fitted).

[3] = molecular target: T4, PDZ (S286E/S329E) from DVL2 (Homo sapiens, UniProt O14641, S286E/S329E); test: Surface plasmon resonance, PDZ phosphorylation-mimicking variant; conditions: for Response (R.U.): SPR, equilibrium
T4 construct: The PDZ domain of human DVL2 wild type (aa 265–361) and phosphorylation-mimicking variant S286E + S329E; His6-tag (N, cleaved yes); lipoyl domain (N, cleaved yes); made in house; host or cells: E. coli BL21 (DE3)
T4 sequence (O14641 265-361 S286E/S329E): T1 sequence (O14641 265-361 S286E/S329E)
Procedure: as §1, §3

[4] = Biacore T200, PDZ immobilized on CM5 chip, steady-state fit, read-out: apparent KD (SPR, one-site binding model)

affinity of phosphorylation-mimicking variant compared with PDZ wt (NMR) ([1]; fast exchange peaks, quantitative analysis): two-fold weaker affinity | Δδ (p.p.m.) F277 ([1]; pFRMA 50 uM): 0.02 p.p.m. | Δδ (p.p.m.) H342 ([1]; pFRMA 50 uM): 0.032 p.p.m. | Δδ (p.p.m.) K301 ([1]; pFRMA 50 uM): 0.026 p.p.m. | Δδ (p.p.m.) F277 ([1]; pFRMA 100 uM): 0.03 p.p.m. | Δδ (p.p.m.) H342 ([1]; pFRMA 100 uM): 0.056 p.p.m. | Δδ (p.p.m.) K301 ([1]; pFRMA 100 uM): 0.044 p.p.m. | Δδ (p.p.m.) F277 ([1]; pFRMA 200 uM): 0.048 p.p.m. | Δδ (p.p.m.) H342 ([1]; pFRMA 200 uM): 0.093 p.p.m. | Δδ (p.p.m.) K301 ([1]; pFRMA 200 uM): 0.071 p.p.m. | Δδ (p.p.m.) F277 ([1]; pFRMA 400 uM): 0.084 p.p.m. | Δδ (p.p.m.) H342 ([1]; pFRMA 400 uM): 0.164 p.p.m. | Δδ (p.p.m.) K301 ([1]; pFRMA 400 uM): 0.128 p.p.m. | Δδ (p.p.m.) F277 ([2]; pFRMA 50 uM): 0.028 p.p.m. | Δδ (p.p.m.) H342 ([2]; pFRMA 50 uM): 0.043 p.p.m. | Δδ (p.p.m.) K301 ([2]; pFRMA 50 uM): 0.035 p.p.m. | Δδ (p.p.m.) F277 ([2]; pFRMA 100 uM): 0.046 p.p.m. | Δδ (p.p.m.) H342 ([2]; pFRMA 100 uM): 0.07 p.p.m. | Δδ (p.p.m.) K301 ([2]; pFRMA 100 uM): 0.06 p.p.m. | Δδ (p.p.m.) F277 ([2]; pFRMA 200 uM): 0.066 p.p.m. | Δδ (p.p.m.) H342 ([2]; pFRMA 200 uM): 0.109 p.p.m. | Δδ (p.p.m.) K301 ([2]; pFRMA 200 uM): 0.092 p.p.m. | Δδ (p.p.m.) F277 ([2]; pFRMA 400 uM): 0.112 p.p.m. | Δδ (p.p.m.) H342 ([2]; pFRMA 400 uM): 0.174 p.p.m. | Δδ (p.p.m.) K301 ([2]; pFRMA 400 uM): 0.148 p.p.m. | Kd (PDZ wild type from DVL2; [4]): 305 µM | Response (R.U.) (PDZ wild type from DVL2; pFRMA 3.125 uM): 3.399 R.U. | Response (R.U.) (PDZ wild type from DVL2; pFRMA 6.25 uM): 3.725 R.U. | Response (R.U.) (PDZ wild type from DVL2; pFRMA 12.5 uM): 4.287 R.U. | Response (R.U.) (PDZ wild type from DVL2; pFRMA 25 uM): 4.98 R.U. | Response (R.U.) (PDZ wild type from DVL2; pFRMA 50 uM): 6.694 R.U. | Response (R.U.) (PDZ wild type from DVL2; pFRMA 100 uM): 9.137 R.U. | Response (R.U.) (PDZ wild type from DVL2; pFRMA 200 uM): 14.3144 R.U. | Response (R.U.) (PDZ wild type from DVL2; pFRMA 400 uM): 24.5768 R.U. | Kd [3, 4]: 754 µM | Response (R.U.) ([3]; pFRMA 3.125 uM): 1.637 R.U. | Response (R.U.) ([3]; pFRMA 6.25 uM): 1.9305 R.U. | Response (R.U.) ([3]; pFRMA 12.5 uM): 2.181 R.U. | Response (R.U.) ([3]; pFRMA 25 uM): 2.621 R.U. | Response (R.U.) ([3]; pFRMA 50 uM): 3.732 R.U. | Response (R.U.) ([3]; pFRMA 100 uM): 5.135 R.U. | Response (R.U.) ([3]; pFRMA 200 uM): 8.677 R.U. | Response (R.U.) ([3]; pFRMA 400 uM): 16.554 R.U. | peptide affinity of phosphorylation-mimicking variant compared with PDZ wt (SPR) ([3]; apparent dissociation constants from SPR): two-fold lower peptide affinity
Structure (SMILES): CSCC[C@H](NC(=O)[C@@H](NC(=O)[C@H](CC(=O)O)NC(=O)[C@@H](NC(=O)[C@H](Cc1ccccc1)NC(=O)[C@H](Cc1ccccc1)NC(=O)[C@H](CCC(=O)O)NC(=O)[C@H](CO)NC(=O)[C@@H]1CCCN1C(=O)[C@H](CC(N)=O)NC(=O)CNC(=O)[C@H](CCSC)NC(=O)[C@H](C)NC(=O)[C@H](CCSC)NC(=O)[C@H](CCCNC(=N)N)NC(=O)[C@H](Cc1ccccc1)NC(=O)[C@H](COP(=O)(O)O)NC(=O)[C@H](CCC(N)=O)NC(=O)[C@@H](N)CCCNC(=N)N)C(C)C)C(C)C)C(=O)O [DVL C-terminal peptide] (H-RQ[pS]FRMAMGNPSEFFVDVM-OH)
